We go through 13 compounds from PubChem BioAssay (NCI).

“And” between values parts separate entries of the source, which are not always exact repeats. Equal values may be shown once.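 Where inhibition never reached the appropriate level, the endpoint shown equals the highest concentration tested. Otherwise, values were interpolated linearly from a five-concentration, 48-hour dose response in 96-well plates. GI50 marks 50% less growth. Definition used: TGI = concentration required for complete inhibition of growth.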

Holding throughout (test): NCI tumour cell line growth inhibition, 48 h
The subject of test [1] is OVCAR-3 ovarian.
In test [2] the test system is LOX IMVI melanoma.
For test [3], the system named is MCF7 breast.
For test [4], the system named is UO-31 renal.
The subject of test [5] is TK-10 renal.
The subject of test [6] is NCI/ADR-RES ovarian.
The test system of test [7] is DU-145 prostate.
Test [8] has as its system SW-620 colon.
The test system of test [9] is OVCAR-8 ovarian.
The test system of test [10] is KM12 colon.

Turning to `O=CC1C(=O)Nc2nc3ccccc3n2C1c1ccccc1` (stereo not given), the TGI in test [1] was 20.7 µM; in test [2], 23.1 µM; in test [3], 27.4 µM; in [4] it was 27.4 µM; in test [5], 71.6 µM; in test [6] it was greater than 100 µM. For the same compound, the TGI worked out at 25.3 µM in test [7], 43.3 µM in test [8], 46.1 µM in test [9] and 29.9 µM in test [10].

Consider `CCCCCC(=O)OC[n+]1ccc(-c2c(COC(=O)NC(C)C)c(COC(=O)NC(C)C)c3n2CCC3)cc1`, for which the TGI in test [1], in test [2], in test [3], in test [4], in test [5] and in test [6] was greater than 100 µM each time. The TGI in [7], in test [8], in [9] and in [10] was greater than 100 µM in each case.

Regarding `COc1cc2oc(=O)cc(C)c2c(OC)c1OC`, the TGI in test [1], in test [2], in [3], in test [4], in test [5] and in test [6] was greater than 100 µM each time. Further, the TGI in [7], in [8], in [9] and in [10] was greater than 100 µM in each case.

Take `c1ccc2c[n+](Cc3ccnc4ccccc34)ccc2c1`: the TGI in [1], in test [2], in [3], in test [4], in [5] and in test [6] was greater than 100 µM throughout. Also, the TGI in [7], in test [8], in test [9] and in test [10] was greater than 100 µM throughout.

For the compound `O=C1N(c2ccccc2)N=C2c3ccncc3C3=NN(c4ccccc4)C(=O)C123` (stereo not given), the TGI in test [1], in test [2], in test [3], in test [4], in test [5] and in [6] was greater than 100 µM throughout. Further, the TGI in [7], in [8], in test [9] and in test [10] was greater than 100 µM throughout.

Consider `C=CCOC1=C(OC(C)=O)C(C2COC(C)(C)O2)OC1=O` (stereo not given), for which the TGI was 31.9 µM in test [1]; 24 µM in [2]; 32.8 µM in test [3]; 33 µM in test [4]; 68.7 µM in test [5]; greater than 100 µM in [6]. Further, the TGI in test [7] was greater than 100 µM; in test [8], 32.7 µM; in test [9] it was greater than 100 µM; in test [10], 44.3 µM.

As to `COc1ccc(/C=C2/C(=O)C(c3ccccc3)N(c3ccccc3)C2=O)cc1OC` (stereo not given), the TGI in [1], in test [2], in [3], in test [4], in [5] and in [6] was greater than 10 µM in each case. Moreover, the TGI in [7], in test [8], in [9] and in test [10] was greater than 10 µM throughout.

`NC(=O)NC(=O)c1cccc(C(=O)NC(N)=O)n1`: the TGI in test [1], in [2], in test [3], in test [4], in test [5] and in test [6] was greater than 100 µM each time. The TGI in [7], in [8], in [9] and in test [10] was greater than 100 µM in each case.

`CN1CCN2CCN(C)CCN(CC1)CC2`: the TGI in test [1], in test [2], in test [3], in [4], in test [5] and in [6] was greater than 100 µM throughout. The TGI in test [7], in test [8], in test [9] and in [10] was greater than 100 µM throughout.

As to `CN(C)C=Nc1cccc2c1NSN2`, the TGI in [1], in [2], in test [3], in test [4], in test [5] and in test [6] was greater than 100 µM in each case. The TGI in test [7], in test [8], in test [9] and in test [10] was greater than 100 µM throughout.

On to `COc1ccc(-c2c(C#N)c(N)n(C3OC(COC(C)=O)C(OC(C)=O)C(OC(C)=O)C3OC(C)=O)c(=S)c2C#N)cc1` (stereo not given), for which the GI50 was 44.4 µM and 15.1 µM in test [1]; 42.4 µM and 16.7 µM in test [4]; 50.5 µM and 21.9 µM in test [5]; 84.2 µM and 34 µM in test [7]; > 100 µM and 36.8 µM in [10]. Besides, the TGI is > 100 µM and 32.3 µM in test [1]; greater than 100 µM in [2]; > 100 µM and 60.9 µM in test [3]; > 100 µM and 38.9 µM in [4]; > 100 µM and 49.3 µM in [5]; greater than 100 µM in [6]. Besides, the TGI was greater than 100 µM in test [7]; greater than 100 µM in test [8]; > 100 µM and 75.4 µM in test [9]; greater than 100 µM in test [10].

Take `COC(=O)C1=C(C(=O)OC)C2CCC1CC2=O` (stereo not given): the TGI in [1], in test [2], in test [3], in test [4], in [5] and in test [6] was greater than 100 µM each time. In addition, the TGI in test [7], in [8], in [9] and in test [10] was greater than 100 µM each time.

Turning to `O=C(CN1CCOCC1)c1ccc2c(c1)oc(=O)n2CCN1CCCCC1`, the TGI in test [1], in [2], in test [3], in test [4], in [5] and in test [6] was greater than 100 µM throughout. For the same compound, the TGI in test [7], in [8], in test [9] and in [10] was greater than 100 µM throughout.
